Results: US11661426B2, “Imidazole-containing inhibitors of ALK2 kinase” (BioCryst Pharmaceuticals, Inc., priority 2017, dated 2023)

Biological target: ALK2 (Homo sapiens (Human), UniProt Q04771)
Experiment: ALK2 inhibition, LanthaScreen Eu Kinase Binding Assay (ThermoFisher Scientific / Life Technologies)
Details: read-out: Measured Ki (IC50) Value for Compounds: IC50
Protocol: Biochemical assays to measure the inhibitory effects of the compounds were performed by ThermoFisher Scientific (Life Technologies). ALK2 inhibition was tested using LanthaScreen™ Eu Kinase Binding Assay screening protocol.

ALK2, sequence (Q04771 21-509): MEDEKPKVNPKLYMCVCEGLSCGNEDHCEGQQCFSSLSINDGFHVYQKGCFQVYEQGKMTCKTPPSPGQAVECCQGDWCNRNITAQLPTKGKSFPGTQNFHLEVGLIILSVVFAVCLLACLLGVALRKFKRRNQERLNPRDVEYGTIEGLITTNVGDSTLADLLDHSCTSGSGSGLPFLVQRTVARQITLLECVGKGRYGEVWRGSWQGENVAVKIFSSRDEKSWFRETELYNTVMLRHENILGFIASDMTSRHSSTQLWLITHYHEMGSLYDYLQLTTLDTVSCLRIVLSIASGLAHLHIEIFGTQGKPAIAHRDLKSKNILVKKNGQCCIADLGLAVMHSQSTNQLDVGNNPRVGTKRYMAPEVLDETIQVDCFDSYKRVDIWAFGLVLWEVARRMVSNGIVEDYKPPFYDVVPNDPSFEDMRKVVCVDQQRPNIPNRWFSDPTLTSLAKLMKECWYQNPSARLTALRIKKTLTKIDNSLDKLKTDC

Structure (SMILES) | IC50
COc1cc(-n2cnc(Nc3nc(N4CCC[C@H]4C(N)=O)nc4c3cnn4C)c2)cc(OC)c1OC [Compound 337a, (S)-1-(1-methyl-4-((1-(3,4,5-trimethoxyphenyl)-1H-imidazol-4-yl)amino)-1H-pyrazolo[3,4-d]pyrimidin-6-yl)pyrrolidine-2-carboxamide] | < 100 nM
COc1cc(-n2cnc(Nc3nc(N4CCC[C@H]4CO)nn4c(CN5CCN(C(=O)OC(C)(C)C)CC5)ccc34)c2)cc(OC)c1OC [Compound 121b, (S)-tert-butyl 4-((2-(2-(hydroxymethyl)pyrrolidin-1-yl)-4-((1-(3,4,5-trimethoxyphenyl)-1H-imidazol-4-yl)amino)pyrrolo[2,1-f][1,2,4]triazin-7-yl)methyl)piperazine-1-carboxylate] | < 100 nM
COc1cc(-n2cnc(Nc3nc(N4[C@H](CO)C[C@H]5C[C@H]54)c4cccn4n3)c2)cc(OC)c1OC [Compound 325e, ((1R,3S,5R)-2-(2-((1-(3,4,5-trimethoxyphenyl)-1H-imidazol-4-yl)amino)pyrrolo[2,1-f][1,2,4]triazin-4-yl)-2-azabicyclo[3.1.0]hexan-3-yl)methanol] | < 100 nM
C[C@H](Nc1nc(Nc2cn(-c3ccccc3)cn2)c2sccc2n1)c1ccccc1 [Compound 17a, (S)—N4-(1-phenyl-1H-imidazol-4-yl)-N2-(1-phenylethyl)thieno[3,2-d]pyrimidine-2,4-diamine] | 100 to 1000 nM
CCCC=Cc1ccc2c(Nc3cn(-c4cc(OC)c(OC)c(OC)c4)cn3)nc(N3CCC[C@H]3CO)nn12 [Compound 79d, (S)-(1-(7-(pent-1-en-1-yl)-4-((1-(3,4,5-trimethoxyphenyl)-1H-imidazol-4-yl)amino)pyrrolo[2,1-f][1,2,4]triazin-2-yl)pyrrolidin-2-yl)methanol] | < 100 nM
COc1cc(-n2cnc(Nc3nc(N4CCC[C@H]4CO)c4ccc(C(=O)N5CCCCC5)n4n3)c2)cc(OC)c1OC [Compound 259d, (S)-(4-(2-(hydroxymethyl)pyrrolidin-1-yl)-2-((1-(3,4,5-trimethoxyphenyl)-1H-imidazol-4-yl)amino)pyrrolo[2,1-f][1,2,4]triazin-7-yl)(piperidin-1-yl)methanone] | < 100 nM
c1ccc(C2CCCN2c2nc(Nc3cn(C4CC4)cn3)c3cccn3n2)nc1 (stereo not drawn) [Compound 27a, N-(1-cyclopropyl-1H-imidazol-4-yl)-2-(2-(pyridin-2-yl)pyrrolidin-1-yl)pyrrolo[2,1-f][1,2,4]triazin-4-amine] | 100 to 1000 nM
COc1cc(-n2cnc(Nc3nc(N4CCC[C@H]4C(N)=O)c4ncsc4n3)c2)cc(OC)c1OC [Compound 196b, (S)-1-(5-((1-(3,4,5-trimethoxyphenyl)-1H-imidazol-4-yl)amino)thiazolo[5,4-d]pyrimidin-7-yl)pyrrolidine-2-carboxamide] | < 100 nM
OC[C@@H]1CCCN1c1nc(Nc2cn(-c3cn(C4CCC4)cn3)cn2)c2cccn2n1 [Compound 450d, (S)-(1-(4-((1′-cyclobutyl-1′H-[1,4′-biimidazol]-4-yl)amino)pyrrolo[2,1-f][1,2,4]triazin-2-yl)pyrrolidin-2-yl)methanol] | 100 to 1000 nM
COc1cc(-n2cnc(Nc3nc4c(c(N5CCC[C@@H]5CO)n3)CN(C(=O)OC(C)(C)C)C4)c2)cc(OC)c1OC [Compound 366b, (R)-tert-butyl 4-(2-(hydroxymethyl)pyrrolidin-1-yl)-2-(1-(3,4,5-trimethoxyphenyl)-1H-imidazol-4-ylamino)-5H-pyrrolo[3,4-d]pyrimidine-6(7H)-carboxylate] | < 100 nM
COc1cc(-n2cnc(Nc3nc(N4CCC[C@@H]4C(N)=O)nc4ccccc34)c2)cc(OC)c1OC [Compound 305a, (R)-1-(4-((1-(3,4,5-trimethoxyphenyl)-1H-imidazol-4-yl)amino)quinazolin-2-yl)pyrrolidine-2-carboxamide] | < 100 nM
c1ccc(C2CCCN2c2nc(Nc3cn(C4CCCC4)cn3)c3cccn3n2)nc1 (stereo not drawn) [Compound 69a, N-(1-cyclopentyl-1H-imidazol-4-yl)-2-(2-(pyridin-2-yl)pyrrolidin-1-yl)pyrrolo[2,1-f][1,2,4]triazin-4-amine] | < 100 nM
COc1cc(-n2cnc(Nc3nc(N4CCC[C@H]4CO)nc4c3c(C)nn4C3CCCCO3)c2)cc(OC)c1OC (stereo partly drawn) [Compound 400c, ((2S)-1-(3-methyl-1-(tetrahydro-2H-pyran-2-yl)-4-((1-(3,4,5-trimethoxyphenyl)-1H-imidazol-4-yl)amino)-1H-pyrazolo[3,4-d]pyrimidin-6-yl)pyrrolidin-2-yl)methanol] | 100 to 1000 nM
N#CC1CC(n2cnc(Nc3nc(N4CCC[C@H]4CO)nn4cccc34)c2)C1 (stereo partly drawn) [Compound 68a, (S)-3-(4-((2-(2-(hydroxymethyl)pyrrolidin-1-yl)pyrrolo[2,1-f][1,2,4]triazin-4-yl)amino)-1H-imidazol-1-yl)cyclobutanecarbonitrile] | < 100 nM
COc1cc(-n2cnc(Nc3nc(N4CCC[C@H]4C(N)=O)c4ccsc4n3)c2)cc(OC)c1OC [Compound 132b, (S)-1-(2-((1-(3,4,5-trimethoxyphenyl)-1H-imidazol-4-yl)amino)thieno[2,3-d]pyrimidin-4-yl)pyrrolidine-2-carboxamide] | < 100 nM

Next, values leading:

IC50 | Structure (SMILES)
< 100 nM | COc1cc(-n2cnc(Nc3nc(N4CCC[C@@H]4CO)nc4ccccc34)c2)cc(OC)c1OC [Compound 304a, (R)-(1-(4-((1-(3,4,5-trimethoxyphenyl)-1H-imidazol-4-yl)amino)quinazolin-2-yl)pyrrolidin-2-yl)methanol]
< 100 nM | COC(=O)c1cc(OC)cc(-n2cnc(Nc3nc(N4CCC[C@H]4CO)nn4cccc34)c2)c1 [Compound 416e, (S)-methyl 3-(4-((2-(2-(hydroxymethyl)pyrrolidin-1-yl)pyrrolo[2,1-f][1,2,4]triazin-4-yl)amino)-1H-imidazol-1-yl)-5-methoxybenzoate]
> 1000 nM | COc1cc(-n2cnc(Nc3nc(N4CCC[C@H]4C(N)=O)nc4[nH]nc(C)c34)c2)cc(OC)c1OC [Compound 401b, (S)-1-(3-methyl-4-((1-(3,4,5-trimethoxyphenyl)-1H-imidazol-4-yl)amino)-1H-pyrazolo[3,4-d]pyrimidin-6-yl)pyrrolidine-2-carboxamide]
< 100 nM | OC[C@@H]1CCCN1c1nc(Nc2cn([C@H]3C[C@H](O)C3)cn2)c2cccn2n1 [Compound 471e, (trans)-3-(4-((2-((S)-2-(hydroxymethyl)pyrrolidin-1-yl)pyrrolo[2,1-f][1,2,4]triazin-4-yl)amino)-1H-imidazol-1-yl)cyclobutanol]
< 100 nM | COc1cc(-n2cnc(Nc3nc(N4CCC[C@H]4CO)nc4c3CCN(C(=O)OC(C)(C)C)C4)c2)cc(OC)c1OC [Compound 183b, (S)-tert-butyl 2-(2-(hydroxymethyl)pyrrolidin-1-yl)-4-((1-(3,4,5-trimethoxyphenyl)-1H-imidazol-4-yl)amino)-5,6-dihydropyrido[3,4-d]pyrimidine-7(8H)-carboxylate]
< 100 nM | COc1cc(-n2cnc(Nc3nc(N4CCC[C@H]4CO)nc4sc(CN5CCOCC5)cc34)c2)cc(OC)c1OC [Compound 97d, (S)-(1-(6-(morpholinomethyl)-4-((1-(3,4,5-trimethoxyphenyl)-1H-imidazol-4-yl)amino)thieno[2,3-d]pyrimidin-2-yl)pyrrolidin-2-yl)methanol]
100 to 1000 nM | COc1ccc(-n2cnc(Nc3nc(N4CCC[C@H]4CO)c4cccn4n3)c2)cc1C(F)(F)F [Compound 229d, (S)-(1-(2-((1-(4-methoxy-3-(trifluoromethyl)phenyl)-1H-imidazol-4-yl)amino)pyrrolo[2,1-f][1,2,4]triazin-4-yl)pyrrolidin-2-yl)methanol]
< 100 nM | COc1cc(-n2cnc(Nc3nc(N4CCC[C@H]4C(N)=O)nc4sc(CN5CCCCC5)cc34)c2)cc(OC)c1OC [Compound 406b, (S)-1-(6-(piperidin-1-ylmethyl)-4-((1-(3,4,5-trimethoxyphenyl)-1H-imidazol-4-yl)amino)thieno[2,3-d]pyrimidin-2-yl)pyrrolidine-2-carboxamide]
< 100 nM | COc1cc(-n2cnc(Nc3nc(N4CCC[C@H]4CO)nc4sc(CN5CCCC5)cc34)c2)cc(OC)c1OC [Compound 384b, (S)-(1-(6-(pyrrolidin-1-ylmethyl)-4-((1-(3,4,5-trimethoxyphenyl)-1H-imidazol-4-yl)amino)thieno[2,3-d]pyrimidin-2-yl)pyrrolidin-2-yl)methanol]
< 100 nM | COc1cc(-n2cnc(Nc3nc4c(c(N5[C@H](CO)C[C@H]6C[C@H]65)n3)CCC4)c2)cc(OC)c1OC [Compound 394b, ((1R,3S,5R)-2-(2-((1-(3,4,5-trimethoxyphenyl)-1H-imidazol-4-yl)amino)-6,7-dihydro-5H-cyclopenta[d]pyrimidin-4-yl)-2-azabicyclo[3.1.0]hexan-3-yl)methanol]
< 100 nM | COc1cc(-n2cnc(Nc3nc(N4CCC[C@H]4C(N)=O)nc4c3CCC4)c2)cc(OC)c1OC [Compound 292a, (S)-1-(4-((1-(3,4,5-trimethoxyphenyl)-1H-imidazol-4-yl)amino)-6,7-dihydro-5H-cyclopenta[d]pyrimidin-2-yl)pyrrolidine-2-carboxamide]
< 100 nM | COc1cc(-n2cnc(Nc3nc(N4CCC[C@H]4CO)c4ccc(OC(C)C)cc4n3)c2)cc(OC)c1OC [Compound 244b, (S)-(1-(7-isopropoxy-2-((1-(3,4,5-trimethoxyphenyl)-1H-imidazol-4-yl)amino)quinazolin-4-yl)pyrrolidin-2-yl)methanol]
100 to 1000 nM | COc1cc(-n2cnc(Nc3nc(N4CCC[C@H]4CO)c4ccc(C)cc4n3)c2)cc(OC)c1OC [Compound 393b, (S)-(1-(7-methyl-2-((1-(3,4,5-trimethoxyphenyl)-1H-imidazol-4-yl)amino)quinazolin-4-yl)pyrrolidin-2-yl)methanol]
< 100 nM | COc1cc(-n2cnc(Nc3nc(N4CCC[C@@H]4CO)nc4ccoc34)c2)cc(OC)c1OC [Compound 294a, (R)-(1-(4-((1-(3,4,5-trimethoxyphenyl)-1H-imidazol-4-yl)amino)furo[3,2-d]pyrimidin-2-yl)pyrrolidin-2-yl)methanol]
< 100 nM | Cn1cnc(Nc2nc(N3CCCC3c3cccnc3)nn3cccc23)c1 (stereo not drawn) [Compound 19a, N-(1-methyl-1H-imidazol-4-yl)-2-(2-(pyridin-3-yl)pyrrolidin-1-yl)pyrrolo[2,1-f][1,2,4]triazin-4-amine]
